Our source for the relative viability values is the supplement of paper PMC10307832.

Assay in all cases: relative viability (nuclei count vs DMSO), 5 days (fraction); higher = more cells survive
Compound in assay [1]: CC(C)C[C@H](NC(=O)[C@H](CCc1ccccc1)NC(=O)CN1CCOCC1)C(=O)N[C@@H](Cc1ccccc1)C(=O)N[C@@H](CC(C)C)C(=O)[C@@]1(C)CO1 [Carfilzomib] + C[C@]1(O)C[C@@H](c2nc(-c3ccc4ccc(-c5ccccc5)nc4c3)c3c(N)nccn32)C1 [Linsitinib] (partner 1 µM)
The method in brief: (§1)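 After 5 days of treatment, lung cancer cells in 1536-well plates were fixed and stained in a single step (final 0.05% Triton X-100, 1% formaldehyde, 1 ug/ml Hoechst) and their nuclei counted on 4× images. Treatment had been applied by pin tool the day after seeding as one drug alone or as a fixed anchor-drug dose with five library-drug doses (not always all listed) in √10 steps. Relative viability is the nuclei count of treated wells divided by that of vehicle wells, and values are medians of duplicate plates.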

Compound in assay [2]: C[C@@H](Oc1cc(-c2cnn(C3CCNCC3)c2)cnc1N)c1c(Cl)ccc(F)c1Cl [Crizotinib] + CC1(C)CCC(c2ccc(Cl)cc2)=C(CN2CCN(c3ccc(C(=O)NS(=O)(=O)c4ccc(N[C@H](CCN5CCOCC5)CSc5ccccc5)c(S(=O)(=O)C(F)(F)F)c4)cc3)CC2)C1 [Navitoclax] (partner 0.5 µM)
The method in brief: as §1

Compound in assay [3]: O=C(c1cc(Cc2n[nH]c(=O)c3ccccc23)ccc1F)N1CCN(C(=O)C2CC2)CC1 [Olaparib] + CC(=O)Nc1cccc(-n2c(=O)n(C3CC3)c(=O)c3c(Nc4ccc(I)cc4F)n(C)c(=O)c(C)c32)c1 [Trametinib] (partner 0.02 µM)
The procedure, abridged:
as §1

Compound in assay [4]: O=C(c1cc(Cc2n[nH]c(=O)c3ccccc23)ccc1F)N1CCN(C(=O)C2CC2)CC1 [Olaparib] + Cc1nc(Nc2ncc(C(=O)Nc3c(C)cccc3Cl)s2)cc(N2CCN(CCO)CC2)n1 [Dasatinib] (partner 0.075 µM)
The method in brief: as §1

Compound in assay [5]: C[C@@H](Oc1cc(-c2cnn(C3CCNCC3)c2)cnc1N)c1c(Cl)ccc(F)c1Cl [Crizotinib] + CS(=O)(=O)N1CCN(Cc2cc3nc(-c4cccc5[nH]ncc45)nc(N4CCOCC4)c3s2)CC1 [Pictilisib] (partner 1 µM)
The method in brief:
as §1

For the cell line NCI-H1793, the relative viability stood at 0.737 in assay [1] (first compound 0.003162 µM); 0.761 in assay [1] (first compound 0.01 µM); 0.939 in assay [1] (first compound 0.03162 µM); 0.585 in assay [1] (first compound 0.1 µM); 0.362 in assay [2] (first compound 0.01 µM); 0.486 in assay [2] (first compound 0.03162 µM). In addition, the relative viability in assay [2] (first compound 0.1 µM) was found to be 0.384; in assay [2] (first compound 1 µM) it was 0.529; in assay [3] (first compound 0.08 µM), 0.522; in assay [3] (first compound 0.253 µM) it was 0.427; in assay [3] (first compound 2.53 µM), 0.395; in assay [3] (first compound 8 µM), 0.476. In addition, the relative viability in assay [4] (first compound 0.08 µM) was determined as 0.377; in assay [4] (first compound 0.253 µM), 0.38; in assay [4] (first compound 2.53 µM) it was 0.353; in assay [4] (first compound 8 µM), 0.303; in assay [5] (first compound 0.01 µM), 0.355; in assay [5] (first compound 0.03162 µM) it was 0.385. The relative viability in assay [5] (first compound 0.1 µM) is 0.339; in assay [5] (first compound 1 µM) it was 0.364.
